In PubChem BioAssay (NCI):
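Values below derive from 48-hour exposures of cells grown in 96-well plates, with endpoints linearly interpolated between the two concentrations bracketing the appropriate inhibition level. GI50 marks 50% less growth. TGI marks complete inhibition of growth.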

Columns and labels:
Assay in all cases: NCI tumour cell line growth inhibition, 48 h; in the data active means GI50 below about 0.43 µM; inactive means the rest
786-0 renal = test system: 786-0 renal
A498 renal = test system: A498 renal
A549 NSCLC = test system: A549 NSCLC
ACHN renal = test system: ACHN renal
CAKI-1 renal = test system: CAKI-1 renal
CCRF-CEM leukemia = test system: CCRF-CEM leukemia
COLO 205 colon = test system: COLO 205 colon
DLD-1 colon = test system: DLD-1 colon
DMS 114 small cell lung = test system: DMS 114 small cell lung
DMS 273 small cell lung = test system: DMS 273 small cell lung
EKVX NSCLC = test system: EKVX NSCLC
HCT-116 colon = test system: HCT-116 colon
HCT-15 colon = test system: HCT-15 colon
HL-60(TB) leukemia = test system: HL-60(TB) leukemia
HOP-18 NSCLC = test system: HOP-18 NSCLC
HOP-62 NSCLC = test system: HOP-62 NSCLC
HT29 colon = test system: HT29 colon
IGROV1 ovarian = test system: IGROV1 ovarian
K-562 leukemia = test system: K-562 leukemia
KM12 colon = test system: KM12 colon
KM20L2 colon = test system: KM20L2 colon
LOX IMVI melanoma = test system: LOX IMVI melanoma
LXFL 529 NSCLC = test system: LXFL 529 NSCLC
M14 melanoma = test system: M14 melanoma
M19-MEL melanoma = test system: M19-MEL melanoma
MALME-3M melanoma = test system: MALME-3M melanoma
MOLT-4 leukemia = test system: MOLT-4 leukemia
NCI-H226 lung = test system: NCI-H226 lung
NCI-H23 lung = test system: NCI-H23 lung
NCI-H460 lung = test system: NCI-H460 lung
NCI-H522 lung = test system: NCI-H522 lung
OVCAR-3 ovarian = test system: OVCAR-3 ovarian
OVCAR-4 ovarian = test system: OVCAR-4 ovarian
OVCAR-5 ovarian = test system: OVCAR-5 ovarian
OVCAR-8 ovarian = test system: OVCAR-8 ovarian
RPMI-8226 leukemia = test system: RPMI-8226 leukemia
RXF 393 renal = test system: RXF 393 renal
SF-268 CNS = test system: SF-268 CNS
SF-295 CNS = test system: SF-295 CNS
SF-539 CNS = test system: SF-539 CNS
SK-MEL-2 melanoma = test system: SK-MEL-2 melanoma
SK-MEL-28 melanoma = test system: SK-MEL-28 melanoma
SK-MEL-5 melanoma = test system: SK-MEL-5 melanoma
SK-OV-3 ovarian = test system: SK-OV-3 ovarian
SN12C renal = test system: SN12C renal
SNB-19 CNS = test system: SNB-19 CNS
SNB-75 CNS = test system: SNB-75 CNS
SNB-78 CNS = test system: SNB-78 CNS
SW-620 colon = test system: SW-620 colon
TK-10 renal = test system: TK-10 renal
UACC-257 melanoma = test system: UACC-257 melanoma
UACC-62 melanoma = test system: UACC-62 melanoma
UO-31 renal = test system: UO-31 renal

CC1(C)OC(=O)C=C(O)O1.CC1(C)OC(=O)C=C(O)O1.CCO.Oc1ccc2c(c1)CCC2.[Ti]
> 100 µM: TGI (786-0 renal) | TGI (A498 renal) | TGI (A549 NSCLC) | TGI (ACHN renal) | TGI (CAKI-1 renal) | TGI (CCRF-CEM leukemia) | TGI (COLO 205 colon) | TGI (DLD-1 colon) | TGI (DMS 114 small cell lung) | TGI (DMS 273 small cell lung) | TGI (EKVX NSCLC) | TGI (HCT-116 colon) | TGI (HCT-15 colon) | TGI (HL-60(TB) leukemia) | TGI (HOP-18 NSCLC) | TGI (HOP-62 NSCLC) | TGI (HT29 colon) | TGI (IGROV1 ovarian) | TGI (K-562 leukemia) | TGI (KM12 colon) | TGI (KM20L2 colon) | TGI (LOX IMVI melanoma) | TGI (LXFL 529 NSCLC) | TGI (M14 melanoma) | TGI (M19-MEL melanoma) | TGI (MALME-3M melanoma) | TGI (MOLT-4 leukemia) | TGI (NCI-H226 lung) | TGI (NCI-H23 lung) | TGI (NCI-H460 lung) | TGI (NCI-H522 lung) | TGI (OVCAR-3 ovarian) | TGI (OVCAR-4 ovarian) | TGI (OVCAR-5 ovarian) | TGI (OVCAR-8 ovarian) | TGI (RPMI-8226 leukemia) | TGI (RXF 393 renal) | TGI (SF-268 CNS) | TGI (SF-295 CNS) | TGI (SF-539 CNS) | TGI (SK-MEL-2 melanoma) | TGI (SK-MEL-28 melanoma) | TGI (SK-MEL-5 melanoma) | TGI (SK-OV-3 ovarian) | TGI (SN12C renal) | TGI (SNB-19 CNS) | TGI (SNB-75 CNS) | TGI (SNB-78 CNS) | TGI (SW-620 colon) | TGI (TK-10 renal) | TGI (UACC-257 melanoma) | TGI (UACC-62 melanoma) | TGI (UO-31 renal)
inactive: GI50 (786-0 renal) > 100 µM | GI50 (A498 renal) > 100 µM | GI50 (A549 NSCLC) > 100 µM | GI50 (ACHN renal) > 100 µM | GI50 (CAKI-1 renal) > 100 µM | GI50 (CCRF-CEM leukemia) > 100 µM | GI50 (COLO 205 colon) > 100 µM | GI50 (DLD-1 colon) > 100 µM | GI50 (DMS 114 small cell lung) > 100 µM | GI50 (DMS 273 small cell lung) > 100 µM | GI50 (EKVX NSCLC) > 100 µM | GI50 (HCT-116 colon) > 100 µM | GI50 (HCT-15 colon) > 100 µM | GI50 (HL-60(TB) leukemia) > 100 µM | GI50 (HOP-18 NSCLC) > 100 µM | GI50 (HOP-62 NSCLC) > 100 µM | GI50 (HT29 colon) > 100 µM | GI50 (IGROV1 ovarian) > 100 µM | GI50 (K-562 leukemia) > 100 µM | GI50 (KM12 colon) > 100 µM | GI50 (KM20L2 colon) > 100 µM | GI50 (LOX IMVI melanoma) > 100 µM | GI50 (LXFL 529 NSCLC) > 100 µM | GI50 (M14 melanoma) > 100 µM | GI50 (M19-MEL melanoma) > 100 µM | GI50 (MALME-3M melanoma) > 100 µM | GI50 (MOLT-4 leukemia) > 100 µM | GI50 (NCI-H226 lung) > 100 µM | GI50 (NCI-H23 lung) > 100 µM | GI50 (NCI-H460 lung) > 100 µM | GI50 (NCI-H522 lung) > 100 µM | GI50 (OVCAR-3 ovarian) > 100 µM | GI50 (OVCAR-4 ovarian) > 100 µM | GI50 (OVCAR-5 ovarian) > 100 µM | GI50 (OVCAR-8 ovarian) > 100 µM | GI50 (RPMI-8226 leukemia) > 100 µM | GI50 (RXF 393 renal) > 100 µM | GI50 (SF-268 CNS) > 100 µM | GI50 (SF-295 CNS) > 100 µM | GI50 (SF-539 CNS) > 100 µM | GI50 (SK-MEL-2 melanoma) > 100 µM | GI50 (SK-MEL-28 melanoma) > 100 µM | GI50 (SK-MEL-5 melanoma) > 100 µM | GI50 (SK-OV-3 ovarian) > 100 µM | GI50 (SN12C renal) > 100 µM | GI50 (SNB-19 CNS) 56.3 µM | GI50 (SNB-75 CNS) > 100 µM | GI50 (SNB-78 CNS) > 100 µM | GI50 (SW-620 colon) > 100 µM | GI50 (TK-10 renal) > 100 µM | GI50 (UACC-257 melanoma) > 100 µM | GI50 (UACC-62 melanoma) > 100 µM | GI50 (UO-31 renal) > 100 µM
